According to US20030087830A1, “Low molecular weight components of cartilage, complexes of metals with amino acids, DI-peptides and analogs thereof; processes for preparation and therapeutic uses thereof” (priority 2001, published 2003):
Residues, ends and D or L forms follow the SMILES beside them.

How the values were obtained:
Endothelial cells [1] = assay: Endothelial cell tubule formation assay (tubulogenesis); format: cell-based; set-up: key to Tubulogenesis: 0: Numerous capillary-like tube forming pentagonal network; +: Decrease of capillary-like tubes; ++: Dramatic decrease of capillary-like tubes; +++: Absence of capillary-like tubes
Experimental: The endothelial cell tubule formation assay is a semi-quantitative assay that was performed to determine the ability of test samples to inhibit this multi-step process, which involves cell adhesion, migration, differentiation and growth, using a commercial kit (Chemicon). Briefly, endothelial cells were seeded on solid gel of Ecmatrix™ (Chemicon), basement proteins prepared from the Engelbreth Holm-Swarm (EHS) mouse tumor in microplate in a E-99 media (Sigma) supplemented with 5% FBS and VEGF (50 ng/ml) in the presence or absence of the test sample. Cells were incubated for a period of 24 hours at 37° C. Pictures were taken on the entire tissue culture dish using a binocular microscope for further evaluation.

[2] = system: blood vessel formation in the vitelline membrane of chick embryo; assay: Embryonic Vascularization Test (EVT); format: in vivo; details: for EVT activity (in words): in vivo
Experimental: The Embryonic Vascularization Test (EVT) was performed to determine the ability of test samples to inhibit the formation of new blood vessels (antiangiogenic activity).
The normal development of a chick embryo involves the formation of an external vascular system located in the vitelline membrane which carries nutrients from the vitellus (yolk) to the developing embryo. When placed onto the vitelline membrane, antiangiogenic substances can inhibit the blood vessel formation that occurs in the vitelline membrane. Briefly, methylcellulose discs (an inert solid and transparent matrix) containing different test samples were placed on the external border of the vascular perimeter of the vitelline membrane, where the angiogenic process occurs. Vascularization was assessed 24 hours after disc deposition, and results were expressed as the percent of embryos in which blood vessel formation was affected. The blood vessel formation was considered affected when its growing path was either deviated, or diminished or when there was no growth observed beyond the disc as compared to the negative control. The results are expressed as 0, +, and ++ where 0 is for a lower response than 25 percent of the eggs; + is for a response between 25 and 50 percent; and ++ is for an antiangiogenic response observed in more than 50 percent of the eggs.
(§1) According to the endothelial cell proliferation assay, the relative effectiveness of two compounds is compared by reference to the EC50 thereof. The EC50 is the concentration of compound at which the number of endothelial cells is reduced by 50% as compared to control. The efficacy of the test samples in EVT is established by the percent of eggs with altered angiogenesis at a given inhibitor dose of 0.6 mg of copper equivalent (see FIG. 6 for examples). A comparison of the antiangiogenic activity of the compounds of the present invention with divalent metal salts (CuCl2, MgCl2, ZnCl2, CoCl2) and uncoupled alpha-amino acids, alpha-imino acids, dipeptides, and nitrogenated molecules comprising a carboxylic acid group, such as creatine, is provided to illustrate that the formation of the amino acid-copper complex gives rise to complexes having antiangiogenic activity.

[3] = system: Lewis lung carcinoma clone M27; assay: Lewis Lung Carcinoma metastatic mouse model (LLC); format: in vivo, C57BL/10 female mice; details: for Antimetastatic activity (% inhibition) (at 2.5 mg/kg of Cu-complex): intraperitoneal daily for two weeks, lung surface metastases
Excerpt: The Lewis Lung Carcinoma mouse model (LLC) was used to determine the ability of different test samples to inhibit the formation of metastases within the lung. The Lewis lung carcinoma clone M27, with a high metastatic potential to the lung, was established by Dr P. Brodt (Brodt P, Characterization of two highly metastatic variants of Lewis lung carcinoma with different organ specificities. Cancer Res., 46: 2442, 1986). This model is well established and is known for its predictive correlation between in vitro and in vivo activity. Briefly, LLC cells were transplanted subcutaneously in the axillary region of the right flank of C57BL/10 female mice (Charles River Inc.) When the primary tumor reached a size of 0.5-1.0 cm^3 (day 10 post-inoculation), the tumor was carefully separated from the surrounding healthy tissues. Treatment with different test samples started the day following tumor removal (day 11 post-inoculation). Saline or different test samples were administered daily for two weeks by intraperitoneal injection (0.2 ml of each dose). As previous experiments had shown that a period of approximately two weeks after removal of the primary tumor was sufficient to obtain an average of 30 to 50 nodules on the lung surface, animals were sacrificed in a CO2 chamber two weeks later. Following autopsy, both lungs were removed, weighed and fixed in 10% Bouin's fixative. Lung surface metastases were counted using a stereomicroscope (4×).

[4] = system: Endothelial cells (HUVEC, BAEC); assay: Endothelial cell proliferation; format: cell-based, human / bovine; details: for EC50: 48 hours, copper equivalent, NA = less than 50% at 1.25 mM copper equivalent, read-out: EC proliferation (EC50 mM)
Experimental: (§2) Endothelial and tumor cell proliferation assays were performed to determine the ability of test samples to inhibit endothelial cell proliferation (antiangiogenic activity), normal cell proliferation,and tumor cell proliferation.
(§3) Endothelial cells (Human umbilical vein endothelial cells (HUVEC), bovine aortic endothelial cells (BAEC)), skeletal muscle cells, human dermal fibroblasts (all from Clonetics, Walkersville, Md.) were respectively maintained in EBM-2, MDEM, SKGM and FGFM-2 complete media according to manufacturer's instructions. Tumor rat glioblastoma cell line (C6) was maintained in DMEM (Sigma, Oaksville, Ontario) supplemented with 10% fetal calf serum (FCS) and antibiotics in 5% CO2. Briefly, cells seeded in 96-well sterile tissue culture dishes were treated with increasing concentrations of different test samples for a period of 48 hours at 37° C. Cell number was then evaluated by a calorimetric assay using the cell proliferation reagent tetrazolium salt and the fluorimetric assay using DNA dye (Hoescht) according to the procedure established by the manufacturer (Boehringer Mannhein). The conversion of these tetrazolium salts into formazan occurs only in metabolically active cells. The percentage of cell inhibition was determined by comparison to untreated cells.
as §1

Endothelial cells [5] = assay: Endothelial cell migration assay (VEGF, modified Boyden chamber); format: cell-based; details: for Cell Migration (% inhibition): copper complexes, concentration not given, VEGF, 4.5 hours
Experimental: The endothelial cell migration assay was performed to determine the ability of test samples to inhibit the chemotaxic activity of vascular endothelial growth factor (VEGF;R/D System, MN) using a modified Boyden chamber (Transwell™, Corning/Costar). Briefly, polyvinylidene difluoride filters (PVDF) were coated with Pronectin F (Biosources, CA), a constituent of basement membrane barrier. Boyden chambers were assembled by adding VEGF to the culture media in the lower chamber (chemoattractant). Endothelial cells suspended in cultured media in the presence or the absence of the test samples were added to the upper chamber. The chambers were then incubated for a period of 4.5 hours at 37° C. At the end of the incubation period, the cells from both side of the PVDF membrane were fixed with 3.7% formaldehyde. Cells from the upper surface of the membrane were mechanically removed, and the cells remaining on the underside of the membrane were stained with crystal violet (0.5%; Sigma). Cells were then carefully rinsed and the dye fixed to the cells was quantified with a microplate reader ([…]) after its solubilization with a solution of 50% citric acid (0.1M) in water and 50% ethanol.

[6] = system: bFGF-stimulated blood vessel formation in Matrigel; assay: Matrigel in vivo angiogenesis assay; set-up: species or system C57B1/6 mice; details: for Matrigel in vivo % inhibition: intra-peritoneal daily 10 days
Experimental: The Matrigel™ in vivo assay was performed to determine the ability of test samples to inhibit blood vessel formation (antiangiogenic activity) and to establish their bioavailability in vivo.
Briefly, liquid Matrigel™ (Becton Dickinson, Bedford, Mass.) was maintained at 4° C. and mixed thoroughly for at least 3 hours with 1,500 ng/ml basic fibroblast growth factor (bFGF) (R&D Systems, Minneapolis, Minn.) used as the primary angiogenic stimulus. The mixture (0.5 ml) was injected subcutaneously into the ventral midline of C57B1/6 mice, and treatment with different test samples or saline solution was initiated the same day. Additional animals were also injected with Matrigel™ containing no bFGF to serve as baseline controls. The animals were treated daily for a 10 day period (intra-peritonealy, 0.2 ml of each dose). At day 11, animals were injected with FITC-dextran 20 min prior to euthanizing treated mice. Matrigel™ gels were removed along with underlying peritoneum and prepared for FITC-dextran detection by fluorimetry. The concentration of FITC-dextran in the gels was calculated from a known concentration of FITC-dextran using a standard curve. The FITC-dextran content of the gels from compound-treated animals and controls was expressed as a percent of the positive bFGF-treated controls after the baseline control of FITC-dextran levels were subtracted from all groups.

[7] = Affinity of the amino acid with copper; format: physicochemical
human dermal fibroblasts = assay: Fibroblast proliferation; format: cell-based; details: 48 hours; free amino acids and Glu-Trp 2.5 mM, CuCl2 1.25 mM
Experimental: as §2, §3

[8] = system: Striated muscle cells (skeletal muscle cells); assay: Striated muscle cell proliferation; format: cell-based; details: 48 hours; free amino acids and Glu-Trp 2.5 mM, CuCl2 1.25 mM
Experimental: as §2, §3

[9] = activity at 0.6 mg equivalent Copper
[10] = copper complexes, concentration not given, VEGF 50 ng/ml, 24 hours

N[C@@H](CCC(=O)O)C(=O)N[C@@H](Cc1c[nH]c2ccccc12)C(=O)O [Free Glu-Trp, glutamyl-tryptophane, reference compound] (H-Glu-Trp-OH)
Tubulogenesis activity (in words) (Endothelial cells [1]): did not show any activity
Tubulogenesis (Endothelial cells [1]; 2.5 mM free (not complexed) ligand): 0
EVT (% of inhibition) [2, 9]: 0 (0 non-active (less than 25% of inhibition))
EVT activity (in words) [2]: almost inactive
Antimetastatic activity (% inhibition) (at 2.5 mg/kg of Cu-complex) [3]: 22.8%
Endothelial cell proliferation activity (in words) [4]: almost inactive
Cell migration activity (in words) (Endothelial cells [5]): did not show any activity
inhibition at 2500 µM (Endothelial cells [5]; Endothelial cell, 2.5 mM free (not complexed) ligand): 10%

N[C@@H](Cc1c[nH]cn1)C(=O)[O-].N[C@@H](Cc1c[nH]cn1)C(=O)[O-].[Cu+2] [Compound 10, L-His:Cu:L-His]
Matrigel in vivo % inhibition ([6]; 7.0 mg/Kg equivalent copper): 63.4%
Matrigel in vivo antiangiogenic activity (in words) ([6]; mouse, in vivo): more active than compound 6
Tubulogenesis activity (in words) (Endothelial cells [1]): did not show any activity
Tubulogenesis (Endothelial cells [1]; [10]): 0
Affinity of the AA with Cooper [7]: 19.4
EVT (% of inhibition) [2, 9]: 0 (0 non-active (less than 25% of inhibition))
EVT activity (in words) [2]: inactive
Antimetastatic activity (% inhibition) (at 2.5 mg/kg of Cu-complex) [3]: 63.0%
Endothelial cell proliferation activity (in words) [4]: inactive
EC50 [4]: 0.9 mM
Cell migration activity (in words) (Endothelial cells [5]): did not show any activity
Cell Migration (% inhibition) (Endothelial cells [5]): 65%

(Glu—Trp)2-Cu [Compound 33]
Tubulogenesis activity (in words) (Endothelial cells [1]): important activity
Tubulogenesis (Endothelial cells [1]; [10]): +++
EVT (% of inhibition) ([2]; 0.6 mg copper equivalent, percent of embryos with affected blood vessel formation, 24 hours after disc deposition): 60%
EVT (% of inhibition) [2, 9]: ++ (++ more than 50% of inhibition)
EC50 (human dermal fibroblasts): 0.66 mM
EC50 [8]: 0.47 mM
Antimetastatic activity (% inhibition) (at 2.5 mg/kg of Cu-complex) [3]: 44%
Anti-metastatic activity in vivo (in words) ([3]; mouse, in vivo): more active than the free di-peptide
EC50 [4]: 0.23 mM
Cell migration activity (in words) (Endothelial cells [5]): important activity
Cell Migration (% inhibition) (Endothelial cells [5]): 96%

C[C@@H](O)[C@H](N)C(=O)[O-].C[C@@H](O)[C@H](N)C(=O)[O-].[Cu+2] [Compound 5, L-Thr:Cu:L-Thr]
Matrigel in vivo % inhibition ([6]; 1.4 mg/Kg equivalent copper): 47.7%
Matrigel in vivo % inhibition ([6]; 7.0 mg/Kg equivalent copper): 59.4%
Tubulogenesis activity (in words) (Endothelial cells [1]): important activity
Tubulogenesis (Endothelial cells [1]; [10]): ++
Affinity of the AA with Cooper [7]: 15.4
EVT (% of inhibition) [2, 9]: ++ (++ more than 50% of inhibition)
EC50 (human dermal fibroblasts): 1.34 mM
EC50 [4]: 0.3 mM
Cell migration activity (in words) (Endothelial cells [5]): important activity
Cell Migration (% inhibition) (Endothelial cells [5]): 90%
